According to BindingDB's records for doi:10.1021/jm00015a023 (Research Triangle Institute, 1995):

Legend:
[1] = Binding affinity was measured on Sigma receptor type 2 using [3H]- DTG as radioligand
[2] = Binding affinity was measured on Sigma receptor type 1 using [3H]- pentazocine as radioligand
[3] = as above; remark: listed apart in the source
[4] = biological target: Sigma non-opioid intracellular receptor 1 (Homo sapiens, UniProt Q99720); assay: Binding affinity was measured on Sigma receptor type 1 using [3H]- pentazocine as radioligand
Sigma non-opioid intracellular receptor 1, sequence (Q99720 whole entry): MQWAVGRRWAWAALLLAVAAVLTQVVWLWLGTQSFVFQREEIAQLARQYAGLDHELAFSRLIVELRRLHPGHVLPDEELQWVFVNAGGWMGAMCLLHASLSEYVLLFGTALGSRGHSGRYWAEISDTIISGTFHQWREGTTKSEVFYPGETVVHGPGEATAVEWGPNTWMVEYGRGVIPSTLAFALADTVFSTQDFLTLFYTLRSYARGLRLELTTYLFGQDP

Compound	Ki [1] [nM]	Ki [2] [nM]	Ki [3] [nM]	Ki [4] [nM]
CC1C2Cc3cc(Br)c(O)c(Br)c3C1(C)CCN2Cc1ccccc1 (stereo not given) [3-Benzyl-7,9-dibromo-6,11-dimethyl-1,2,3,4,5,6-hexahydro-2,6-methano-benzo[d]azocin-8-ol]	2010	70.6		
CC1C2Cc3cc(Cl)c(O)c(Cl)c3C1(C)CCN2Cc1ccccc1 (stereo not given) [3-Benzyl-7,9-dichloro-6,11-dimethyl-1,2,3,4,5,6-hexahydro-2,6-methano-benzo[d]azocin-8-ol]	2170		71.5	
CC1C2Cc3ccc(O)c(Br)c3C1(C)CCN2Cc1ccccc1 (stereo not given) [3-Benzyl-7-bromo-6,11-dimethyl-1,2,3,4,5,6-hexahydro-2,6-methano-benzo[d]azocin-8-ol]	346		1.75	
CC1C2Cc3ccc(O)c(Cl)c3C1(C)CCN2Cc1ccccc1 (stereo not given) [3-Benzyl-7-chloro-6,11-dimethyl-1,2,3,4,5,6-hexahydro-2,6-methano-benzo[d]azocin-8-ol]	764		1.72	
CC1C2Cc3cc(Br)c(O)cc3C1(C)CCN2Cc1ccccc1 (stereo not given) [3-Benzyl-9-bromo-6,11-dimethyl-1,2,3,4,5,6-hexahydro-2,6-methano-benzo[d]azocin-8-ol]	1220		68.6	
CC1C2Cc3cc(I)c(O)cc3C1(C)CCN2Cc1ccccc1 (stereo not given) [3-Benzyl-9-iodo-6,11-dimethyl-1,2,3,4,5,6-hexahydro-2,6-methano-benzo[d]azocin-8-ol]	597		231	
CC(C)=CCN1CCC2(C)c3c(cc(Br)c(O)c3Br)CC1C2C (stereo not given) [7,9-Dibromo-6,11-dimethyl-3-(3-methyl-but-2-enyl)-1,2,3,4,5,6-hexahydro-2,6-methano-benzo[d]azocin-8-ol]	211		120	
CC(C)=CCN1CCC2(C)c3c(ccc(O)c3Br)CC1C2C (stereo not given) [7-Bromo-6,11-dimethyl-3-(3-methyl-but-2-enyl)-1,2,3,4,5,6-hexahydro-2,6-methano-benzo[d]azocin-8-ol]	283		2.49	
CC(C)=CCN1CCC2(C)c3c(ccc(O)c3Cl)CC1C2C (stereo not given) [7-Chloro-6,11-dimethyl-3-(3-methyl-but-2-enyl)-1,2,3,4,5,6-hexahydro-2,6-methano-benzo[d]azocin-8-ol]	4960		2.62	
CC(C)=CCN1CCC2(C)c3cc(O)c(Br)cc3CC1C2C (stereo not given) [9-Bromo-6,11-dimethyl-3-(3-methyl-but-2-enyl)-1,2,3,4,5,6-hexahydro-2,6-methano-benzo[d]azocin-8-ol]				144
CC(C)=CCN1CCC2(C)c3cc(O)c(I)cc3CC1C2C (stereo not given) [9-Iodo-6,11-dimethyl-3-(3-methyl-but-2-enyl)-1,2,3,4,5,6-hexahydro-2,6-methano-benzo[d]azocin-8-ol]				35.2
